We go through four compounds from ChEMBL document CHEMBL1201862, “PubChem BioAssay data set” (2004).

Some test systems named below: 786-0; CAKI-1; HCT-15; IGROV-1; K562; LOX IMVI; NCI-H23; NCI/ADR-RES; OVCAR-4; PC-3; RPMI-8226; SK-MEL-28; SK-MEL-5; SR; U-251; UACC-257; UO-31; CCRF-CEM; HL-60; SF-539.
Test in all cases: growth of human tumour cells (NCI), 48 h

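Where inhibition never reached the appropriate level, the endpoint shown equals the highest concentration tested. Otherwise, values were interpolated linearly from a five-concentration, 48-hour dose response in 96-well plates. Abbreviation: GI50, concentration required for 50% inhibition of growth.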 Calls of active or inactive are those of the source. Cut-off read from the data, not from the text of the source: active = GI50 up to about 1.1 µM and inactive = higher. Bounds are passed on as bounds.

As for `O=C1c2ccccc2C(=O)c2c(Nc3cc4c5c(ccc6c7ccc8c9c(cc(Nc%10cccc%11c%10C(=O)c%10ccccc%10C%11=O)c(c3c56)c97)-c3ccccc3C8=O)C(=O)c3ccccc3-4)cccc21`, the GI50 in the assay on 786-0 was 29.2 µM (inactive); in the assay on CAKI-1, 67 µM (inactive); in the assay with HCT-15 it was more than 100 µM; with IGROV-1 it was 24.6 µM (inactive); with K562, 75 µM (inactive); in the assay with LOX IMVI it was 72.1 µM (inactive). Further, the GI50 in the assay with NCI-H23 is > 100 µM (inactive); with NCI/ADR-RES it was 49.1 µM (inactive); in the assay with OVCAR-4 it was 65.8 µM (inactive); in the assay with PC-3 it was 70.6 µM (inactive); in the assay on RPMI-8226, > 100 µM (inactive); with SK-MEL-28, > 100 µM (inactive). Also, the GI50 with SK-MEL-5 was > 100 µM (inactive); in the assay with SR, 43.7 µM (inactive); in the assay with U-251 it was 21.1 µM (inactive); in the assay with UACC-257 it was > 100 µM (inactive); in the assay on UO-31 it was 84.5 µM (inactive).
As for `O=P(O)(Cc1ccccc1)c1ccccc1-c1ccccc1`, the GI50 in the assay on 786-0 is > 100 µM (inactive); in the assay with CAKI-1, > 100 µM (inactive); with CCRF-CEM, > 100 µM (inactive); with HCT-15, more than 100 µM; in the assay on HL-60 it was > 100 µM (inactive); in the assay with IGROV-1 it was > 100 µM (inactive). Further, the GI50 in the assay with K562, in the assay with LOX IMVI, in the assay on NCI-H23, in the assay with NCI/ADR-RES, in the assay on OVCAR-4 and in the assay on PC-3 was > 100 µM (inactive) each time. Besides, the GI50 was > 100 µM (inactive) in the assay with SF-539; > 100 µM (inactive) with SK-MEL-28; > 100 µM (inactive) with SK-MEL-5; > 100 µM (inactive) with SR; 57.1 µM (inactive) with U-251; > 100 µM (inactive) with UACC-257. Further, the GI50 in the assay on UO-31 is > 100 µM (inactive).
Consider `Cc1ccc(S(=O)(=O)N(CCN)c2cc3c4c(c2)Oc2cccc5c2C4c2c(cccc2O3)O5)cc1`, for which the GI50 with 786-0 was 16.6 µM (inactive); in the assay on CCRF-CEM, 22.7 µM (inactive); in the assay with HCT-15, 81.1 µM; with IGROV-1, 11 µM (inactive); in the assay on K562, 30 µM (inactive); in the assay with LOX IMVI, 23.2 µM (inactive). Moreover, the GI50 with NCI-H23 is 36.1 µM (inactive); with NCI/ADR-RES it was 10.7 µM (inactive); with OVCAR-4, > 10 µM (inactive); in the assay on PC-3 it was 18.7 µM (inactive); with RPMI-8226 it was 30.8 µM (inactive); with SF-539, 18.8 µM (inactive). Further, the GI50 was 25.2 µM (inactive) in the assay on SK-MEL-28; 19.9 µM (inactive) in the assay with SK-MEL-5; 0.724 µM (active) in the assay on SR; 19.6 µM (inactive) with U-251; 30.5 µM (inactive) with UACC-257; > 100 µM (inactive) in the assay on UO-31.
On to `O=C1/C(=C/c2cccc([N+](=O)[O-])c2)N=C(c2ccccc2)N1c1nc2ccc(Sc3ccccc3)cc2[nH]1`, for which the GI50 in the assay on 786-0 is 60.1 µM (inactive); in the assay on CAKI-1, 65.5 µM (inactive); in the assay on HCT-15, 35.6 µM; in the assay with IGROV-1, 37.8 µM (inactive); in the assay with K562, 30.9 µM (inactive); in the assay with LOX IMVI it was 38.5 µM (inactive). In addition, the GI50 with NCI-H23 is 46.6 µM (inactive); in the assay with NCI/ADR-RES, 29.3 µM (inactive); in the assay on OVCAR-4, 49.3 µM (inactive); in the assay with PC-3, 35.4 µM (inactive); in the assay with RPMI-8226, 33.3 µM (inactive); in the assay on SF-539, 57.4 µM (inactive). Further, the GI50 was 84.7 µM (inactive) in the assay on SK-MEL-28; 28.8 µM (inactive) with SK-MEL-5; 24.8 µM (inactive) with SR; 37.3 µM (inactive) in the assay on U-251; 42 µM (inactive) with UACC-257; 3.45 µM (inactive) in the assay with UO-31.
